Data on 5 molecules can be found in patent US4118561A, “7-(Substituted)-7H-pyrrolo[3,2-f]quinazoline-1,3-diamines” (priority 1977, dated 1978).

In general, MIC refers to the least concentration at which growth counts as inhibited.

In brackets after ≈: the same amount, converted by molar mass. Where two headings read alike, the source gives them in different places.

One data set concerns P. vulgaris 6896. Description: In vitro antibacterial activity (MIC), P. vulgaris 6896. As to conditions: Proteus vulgaris, 6896, 18 h.
Another data set concerns S. aureus Smith. Description: In vitro antibacterial activity (MIC), S. aureus Smith. As to conditions: Staphylococcus aureus, 18 h.
Data set [1] in a line: Antimalarial blood schizonticidal test in mice. As to conditions: mouse, in vivo, sc, single dose, read-out: Highest Non-Lethal Dose. It counts as in vivo, Plasmodium berghei (infected ICR/HA Swiss mice). The arrangement: ΔMST (increase in mean survival time): unit: days. The source says:
(§1) In addition, the invention provides compounds which have antimalarial activity in vivo as evidenced by a standard blood schizonticidal test in mice infected with Plasmodium berghei KBG 173.
(§2) Utilizing young ICR/HA Swiss mice and a standard inoculum of Plasmodium berghei KBG 173, it is possible to produce a uniform disease fatal to 100% of untreated animals within 6 to 8 days with a mean survival time of 6.2 days. Test animals weigh from 18 to 22 grams but weight variations in any given experimental or control group are confined to 2-3 grams. All animals in any given test are approximately of the same age. Animals on test are housed in metal-topped plastic cages, given a standard laboratory diet and water ad libitum.
(§3) Test animals receive an intraperitoneal injection of 0.5 ml. of 1:100 dilution of heparinized heart's blood with a minimum of 90% parasitized cells (4 × 10^7 cells), drawn from donor mice infected one week earlier with Plasmodium berghei. The donor strain is maintained by weekly passages in separate groups of mice inoculated with a 0.5 ml. of 1:500 dilution of heparinized heart's blood.
(§4) Test compounds are administered after dissolution or suspension in peanut oil. A single dose is given subcutaneously 72 hours after the mice are infected with Plasmodium berghei. At this time a 10-15 percent parasitemia has developed; the disease is well established but has not produced sufficient debility to alter the response of the host to toxic effects of the drug on test. Since treatment is withheld for three days to permit the infection to become well established and death occurs in untreated controls within 6-8 days, it is felt that this system presents a candidate compound with the maximum challenge. In order to check factors such as changes in the infectivity of Plasmodium berghei or in the susceptibility of the host or to detect technical errors, a group of infected animals treated with pyrimethamine at dose levels producing definite increases in survival time is included in a positive control in every experiment.
(§5) In each experiment test compounds are administered in graded dosages. […] However, if an active drug is toxic for the host, its toxicity may become a limiting factor; continued increases in dose levels also increase the toxic effects and may result in the diminution of survival times. Deaths prior to the sixth day, when untreated controls begin to die, are regarded as nonparasitic and become the basis for toxicity evaluations. […] In calculating mean survival time, toxic deaths and 60-day survivors are not included.
(§6) Compounds are considered active which produce a cure in at least one test animal or which produce significant increases in mean survival times of the treated animals as compared with the mean survival times of untreated controls, provided that no drug related deaths (toxicity) are noted at the active dose.

For data set [2], the system named is Plasmodium berghei KBG 173. The experiment in a line: Antimalarial blood schizonticidal test in mice. It counts as in vivo, Plasmodium berghei (infected ICR/HA Swiss mice). The arrangement: ΔMST (increase in mean survival time): unit: days. The following applies: s.c.; for ED100 / minimal effective dose: Plasmodium berghei, sc, single dose; for ED100: read-out: Lowest Dose Curing All Mice; for minimal effective dose: read-out: Min. Curing Dose; for Cure/Treat at Min. Curing Dose: at the Min. Curing Dose.
Source text: as §1, §2, §3, §4, §5, §6

The next data set relates to N. catarrhalis 8193. The experiment in a line: In vitro antibacterial activity (MIC), N. catarrhalis 8193. As to conditions: 18 h.
Another data set concerns K. pneumoniae 10031. Description: In vitro antibacterial activity (MIC), K. pneumoniae 10031. The following applies: Klebsiella pneumoniae, 10031, 18 h.
For a further data set, the system named is S. aureus 53-180. Description: In vitro antibacterial activity (MIC), S. aureus 53-180. As to conditions: Staphylococcus aureus, 53180, 18 h.
For another data set, the system named is E. coli 9637. The experiment in a line: In vitro antibacterial activity (MIC), E. coli 9637. As to conditions: Escherichia coli, 9637, 18 h.
The test system of the next data set is S. paratyphi 11737. The experiment in a line: In vitro antibacterial activity (MIC), S. paratyphi 11737. It is filed as cell-based. The following applies: Salmonella enterica, 18 h.
Where [3] appears, read: infected mice, highest dose with no deaths for any reason.
Setting [4] is: 336 h, alive on day 14 considered cured, no 60-day data.

For `CC(C)c1ccc(Cn2ccc3c4c(N)nc(N)nc4ccc32)cc1` [Example 29], the MIC stood at 62.5 µg/mL (≈ 189 µM) against P. vulgaris 6896; 1.95 µg/mL (≈ 5.88 µM) with S. aureus Smith; 0.244 µg/mL (≈ 0.736 µM) with N. catarrhalis 8193; 0.488 µg/mL (≈ 1.47 µM) against K. pneumoniae 10031; 0.976 µg/mL (≈ 2.94 µM) in the data set with S. aureus 53-180; 7.81 µg/mL (≈ 23.6 µM) against E. coli 9637. In addition, the MIC in the data set with S. paratyphi 11737 is 62.5 µg/mL (≈ 189 µM). Moreover, in data set [1] (setting [3]), the MTD is 20 mg/kg. Further, the ED100 in data set [2] (1440 h, 60-day survivors) came out at 20 mg/kg. In addition, the minimal effective dose in data set [2] (1440 h, 60-day survivors) stood at 10 mg/kg. Further, the “Cure/Treat at Min. Curing Dose” value in data set [2] (60-day survivors) was 1/5. Further, in data set [2] (dose 10 mg. per kg.), the “ΔMST (increase in mean survival time)” value came to 10.2.
Turning to `CSc1ccc(Cn2ccc3c4c(N)nc(N)nc4ccc32)cc1` [Example 31], the MIC was found to be 31.3 µg/mL (≈ 93.3 µM) against P. vulgaris 6896; 0.976 µg/mL (≈ 2.91 µM) against S. aureus Smith; 0.0152 µg/mL (≈ 0.0453 µM) with N. catarrhalis 8193; 0.122 µg/mL (≈ 0.364 µM) against K. pneumoniae 10031; 0.488 µg/mL (≈ 1.45 µM) in the data set on S. aureus 53-180; 0.488 µg/mL (≈ 1.45 µM) against E. coli 9637. Further, the minimal inhibitory concentration (MIC) against S. paratyphi 11737 is 3.9 µg/mL (≈ 11.6 µM). Further, in [1] (alive on day 14 considered cured, no 60-day data), the MTD was found to be 40 mg/kg. For the same molecule, the ED100 in [2] (setting [4]) was determined as 20 mg/kg. For the same molecule, the minimal effective dose in data set [2] (setting [4]) came out at 2.5 mg/kg. Also, the “Cure/Treat at Min. Curing Dose” value in [2] (alive on day 14 considered cured) is 4/5. Also, the “ΔMST (increase in mean survival time)” value in data set [2] (dose 1.25 mg. per kg., alive on day 14 considered cured, no 60-day data) worked out at 6.2.
As to `Nc1nc(N)c2c(ccc3c2ccn3Cc2ccc(Cl)c(Cl)c2)n1` [Example 10], the MIC was determined as 31.3 µg/mL (≈ 87.4 µM) with P. vulgaris 6896; 0.976 µg/mL (≈ 2.72 µM) with S. aureus Smith; 0.061 µg/mL (≈ 0.17 µM) against N. catarrhalis 8193; 0.488 µg/mL (≈ 1.36 µM) against K. pneumoniae 10031; 0.488 µg/mL (≈ 1.36 µM) against S. aureus 53-180; 3.9 µg/mL (≈ 10.9 µM) in the data set with E. coli 9637. The minimal inhibitory concentration (MIC) against S. paratyphi 11737 was 31.3 µg/mL (≈ 87.4 µM). The MTD in data set [1] (setting [3]) was 40 mg/kg. The ED100 in data set [2] (1440 h, 60-day survivors) turned out to be 10 mg/kg. In addition, the minimal effective dose in [2] (1440 h, 60-day survivors) came out at 2.5 mg/kg. Moreover, in data set [2] (60-day survivors), the “Cure/Treat at Min. Curing Dose” value is given as 2/5. In addition, the “ΔMST (increase in mean survival time)” value in data set [2] (dose 2.5 mg. per kg.) is recorded as 10.2.
Consider `Nc1nc(N)c2c(ccc3c2ccn3Cc2ccccc2C(F)(F)F)n1` [Example 11], for which the MIC against P. vulgaris 6896 is 62.5 µg/mL (≈ 175 µM); in the data set on S. aureus Smith, 0.488 µg/mL (≈ 1.37 µM); in the data set with N. catarrhalis 8193 it was < 0.0009 µg/mL; with K. pneumoniae 10031 it was 0.122 µg/mL (≈ 0.341 µM); with S. aureus 53-180, 0.244 µg/mL (≈ 0.683 µM); in the data set on E. coli 9637, 1.95 µg/mL (≈ 5.46 µM). In the data set on S. paratyphi 11737, this molecule registered an MIC of 3.9 µg/mL (≈ 10.9 µM). In addition, in data set [1] (setting [3]), the MTD amounted to 40 mg/kg. In addition, in data set [2] (1440 h, 60-day survivors), the ED100 was found to be 10 mg/kg. For the same molecule, in [2] (1440 h, 60-day survivors), the minimal effective dose stood at 1.25 mg/kg. The “Cure/Treat at Min. Curing Dose” value in data set [2] (60-day survivors) is 1/5. For the same molecule, in [2] (dose 0.63 mg. per kg.), the “ΔMST (increase in mean survival time)” value worked out at 7.3.
On to `Nc1nc(N)c2c(ccc3c2ccn3Cc2ccc3ccccc3c2)n1` [Example 48], for which the MIC in the data set with P. vulgaris 6896 is > 250 µg/mL; with S. aureus Smith, 125 µg/mL (≈ 368 µM); in the data set with N. catarrhalis 8193 it was 0.244 µg/mL (≈ 0.719 µM); against K. pneumoniae 10031 it was 7.81 µg/mL (≈ 23 µM); against S. aureus 53-180, 125 µg/mL (≈ 368 µM); against E. coli 9637, 250 µg/mL (≈ 737 µM). Besides, in the data set with S. paratyphi 11737, the MIC is > 250 µg/mL. Also, the MTD in data set [1] (setting [3]) is 1160 mg/kg. In data set [2] (1440 h, 60-day survivors), the ED100 is 40 mg/kg. Further, the minimal effective dose in [2] (1440 h, 60-day survivors) worked out at 20 mg/kg. Besides, the “Cure/Treat at Min. Curing Dose” value in data set [2] (60-day survivors) is given as 4/5. The “ΔMST (increase in mean survival time)” value in data set [2] (dose 5 mg. per kg.) is 7.3.
